Paper PMC10284550, “Accelerating drug target inhibitor discovery with a deep generative foundation model” (Science Advances, 2023)
Read-outs that look alike come from different tables or passages of the source.

Tests used:
[1] = target: T1, SARS-CoV-2 M^pro (Severe acute respiratory syndrome coronavirus 2, UniProt P0DTD1); assay: biochemical
[2] = target: T1, SARS-CoV-2 M^pro; type: binding
[3] = tested on: SARS-CoV-2 pseudotyped lentivirus; assay: microbe, parasite or virus in culture; type: cell-based
[4] = tested on: SARS-CoV-2 Victoria live virus (SARS-CoV-2/human/AUS/VIC01/2020); assay: microbe, parasite or virus in culture; type: cell-based
[5] = tested on: SARS-CoV-2 pseudotyped lentivirus (Victoria); assay: microbe, parasite or virus in culture; type: cell-based; details: read-out: IC50 pseudoviral neutralization, Victoria
[6] = tested on: SARS-CoV-2 pseudotyped lentivirus (Alpha); assay: microbe, parasite or virus in culture; type: cell-based; details: read-out: IC50 pseudoviral neutralization, Alpha
[7] = tested on: SARS-CoV-2 pseudotyped lentivirus (Beta); assay: microbe, parasite or virus in culture; type: cell-based; details: read-out: IC50 pseudoviral neutralization, Beta
[8] = tested on: SARS-CoV-2 pseudotyped lentivirus (Gamma); assay: microbe, parasite or virus in culture; type: cell-based; details: read-out: IC50 pseudoviral neutralization, Gamma
[9] = tested on: SARS-CoV-2 pseudotyped lentivirus (Delta); assay: microbe, parasite or virus in culture; type: cell-based; details: read-out: IC50 pseudoviral neutralization, Delta
[10] = tested on: SARS-CoV-2 pseudotyped lentivirus (Omicron); assay: microbe, parasite or virus in culture; type: cell-based; details: read-out: IC50 pseudoviral neutralization, Omicron
[11] = tested on: SARS-CoV-2 Alpha live virus; assay: microbe, parasite or virus in culture; type: cell-based
[12] = tested on: SARS-CoV-2 Gamma live virus; assay: microbe, parasite or virus in culture; type: cell-based; details: Severe acute respiratory syndrome coronavirus 2, read-out: IC50 live virus neutralization, Gamma
[13] = tested on: SARS-CoV-2 Delta live virus; assay: microbe, parasite or virus in culture; type: cell-based
[14] = tested on: SARS-CoV-2 Omicron live virus; assay: microbe, parasite or virus in culture; type: cell-based; details: Severe acute respiratory syndrome coronavirus 2, read-out: IC50 live virus neutralization, Omicron
[15] = tested on: SARS-CoV-2; details: cited from earlier work
[16] = Severe acute respiratory syndrome coronavirus 2, HEK293T/17, read-out: IC50, neutralization of SARS-CoV-2 pseudotyped lentivirus
[17] = Severe acute respiratory syndrome coronavirus 2, read-out: IC50, neutralization of Victoria live virus

With `CN(Cc1ccc(Cl)c(Cl)c1)c1ccc(S(N)(=O)=O)cn1` [Z68337194] the IC50 [1] was 35.5 µM and the “Binding to M^pro seen in crystal structure” value [2] was “bound in the active site pocket”.

With `NC(=O)c1ccc(N)cc1OC1CCN(CC(F)(F)F)CC1` [GEN626] the IC50 [3, 16] was > 50 µM and the IC50 [4, 17] was > 50 µM.

For `CN(c1nc(N2CCOCC2)nc(N2CCc3ccccc32)n1)C1CCC(NS(N)(=O)=O)CC1` (stereo not shown) [GXA112], the IC50 [1] was 34.2 µM.

`C#CCN1CCC(CCNc2ccnc3ccccc23)CC1` [GEN727] gave an IC50 [3, 16] of 2.8 µM, an IC50 ([3]; read-out: IC50, neutralization of spike-containing pseudovirus across all VOCs) of 0.7 to 2.8 µM and an IC50 [5] of 2.8 ± 1.6 µM. It also gave an IC50 [6] of 2.4 ± 0.4 µM, an IC50 [7] of 1.1 ± 0.8 µM and an IC50 [8] of 0.7 ± 0.3 µM. It also gave an IC50 [9] of 2.2 ± 0.1 µM, an IC50 [10] of 2.7 ± 0.5 µM and an IC50 [4, 17] of 34.8 ± 2 µM. The IC50 ([4]; Severe acute respiratory syndrome coronavirus 2, read-out: IC50 live virus neutralization, Victoria) was 31.5 ± 2.6 µM, the IC50 ([4]; read-out: IC50 live virus neutralization, Victoria) was < 50 µM and the IC50 ([11]; Severe acute respiratory syndrome coronavirus 2, read-out: IC50 live virus neutralization, Alpha) was 33.8 ± 1.1 µM. The IC50 ([11]; read-out: IC50 live virus neutralization, Alpha) was < 50 µM, the IC50 [12] was 55.4 ± 8.9 µM and the IC50 ([13]; Severe acute respiratory syndrome coronavirus 2, read-out: IC50 live virus neutralization, Delta) was 39.1 ± 7.4 µM. For the same compound, the IC50 ([13]; read-out: IC50 live virus neutralization, Delta) was < 50 µM and the IC50 [14] was 130 ± 1.9 µM.

For `CS(=O)(=O)c1ccccc1Oc1ccc(-c2ccc(S(N)(=O)=O)cc2)cc1` [GEN725], the IC50 [3, 16] was 18.7 µM and the IC50 [4, 17] was > 50 µM.

For `Cn1nnnc1C1(c2cccc(Cl)c2)CCC1` [GEN777], the IC50 [3, 16] was > 50 µM and the IC50 [4, 17] was > 50 µM.

Compound `OC1CCN(c2nc(Nc3ccc4c(c3)CCC4)nc(N3CCC(F)(F)CC3)n2)CC1` [GXA70] has an IC50 [1] of 43 µM.

In the case of `CS(=O)(=O)c1cccc(C[C@H](NC(=O)c2c(Cl)cc3c(c2Cl)CCN(C(=O)c2ccc4ccoc4c2)C3)C(=O)O)c1` [Lifitegrast], the “antiviral potency against SARS-CoV-2 in vitro” value [15] is listed as “dose-dependent antiviral potency”.
